Results as given in article PMC8411975, “Frag4Lead: growing crystallographic fragment hits by catalog using fragment-guided template docking” (Acta Crystallographica. Section D, Structural Biology, 2021).
Read-outs that look alike come from different tables or passages of the source.

Legend:
endothiapepsin (EP) [1] = biological target: T1, endothiapepsin (EP) (Cryphonectria parasitica, UniProt P11838); set-up: method as in Schiebel, Radeva et al. (2016); details: starting fragments, ref Schiebel, Radeva et al. (2016), cited from earlier work; for Kd: read-out: Kd (dissociation constant of the compound from EP)
T1 sequence (P11838 90-419): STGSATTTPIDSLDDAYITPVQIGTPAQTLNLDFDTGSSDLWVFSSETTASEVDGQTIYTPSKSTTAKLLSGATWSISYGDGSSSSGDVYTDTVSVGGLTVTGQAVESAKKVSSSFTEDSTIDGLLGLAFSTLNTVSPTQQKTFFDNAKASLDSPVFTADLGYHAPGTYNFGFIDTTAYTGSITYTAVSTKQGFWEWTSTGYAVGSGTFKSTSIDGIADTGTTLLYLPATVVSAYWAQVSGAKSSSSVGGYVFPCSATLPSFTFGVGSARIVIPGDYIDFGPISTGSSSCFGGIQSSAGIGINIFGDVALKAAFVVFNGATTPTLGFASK

[2] = Solubility noted during ITC sample preparation; type: physicochemical; details: ITC buffer, 0.1 M sodium acetate pH 4.6, 3%(v/v) DMSO
Method: (§1) ITC experiments were conducted similarly to the procedure desribed by Schiebel, Radeva et al. (2016[▸]) on a MicroCal ITC200 (Malvern) instrument. All buffer solutions for ITC were prepared with the same batch of buffer as used to isolate the batch of EP. Details of the ITC experiments, including the protein and ligand concentrations for each experiment, are listed in Supplementary Table S2. […] All displacement titrations were conducted as single measurements, except for that of FU5-2 (n = 3). The affinities of the stronger binding follow-up ligands were determined by direct ITC titrations. For this, 1 mM compound in a buffer solution consisting of 0.1 M sodium acetate pH 4.6, 3%(v/v) DMSO was titrated into the same buffer additionally containing 50 µM EP to a final stoichiometry of N = 4.

[3] = Stability of synthesized compound on exposure to air; type: physicochemical; details: exposed to air at room temperature over a longer period of time
endothiapepsin (EP) [4] = biological target: T1, endothiapepsin (EP); assay: Compound soaking into EP crystals and X-ray crystal structure determination; type: binding; details: soaking at 100 mM or supernatant, 16–22 h
Method: The follow-up compounds (a full list, including providers and purities, if known, is given in Supplementary Table S1) were directly dissolved in a soaking solution consisting of 68.2 mM sodium acetate pH 4.6, 68.2 mM ammonium acetate pH 7.0, 16.9%(w/v) PEG 4000, 19.3%(v/v) glycerol, 9.09%(v/v) DMSO to a concentration of 100 mM. For poorly soluble follow-up compounds, crystals were soaked in the supernatant of the solution. After incubation for 16–22 h the crystals were flash-cooled in liquid nitrogen and stored for diffraction data collection.
All data collections were carried out on beamlines BL14.1 and BL14.2 of the BESSY II electron-storage ring operated by the Helmholtz-Zentrum Berlin (HZB; Mueller et al., 2015[▸]). Typically, 360° of data were collected in 0.1° increments using an exposure time of 0.1 s. Data were automatically processed using XDSAPP (Sparta et al., 2016[▸]).
All structures were refined using the automated script fspipeline, which is based on Schiebel, Krimmer et al. (2016[▸]). The starting model was based on PDB entry 4y5l (Schiebel, Krimmer et al., 2016[▸]), from which all ligands and water molecules were removed. Electron-density maps and coordinate files obtained from the automated refinement were inspected manually for each experiment to judge the presence or absence of the expected ligand in the difference electron density. Subsequently, the identified hits were subjected to several rounds of alternating model building in Coot (Emsley et al., 2010[▸]) and refinement in Phenix (Liebschner et al., 2019[▸]) before and after ligand placement. For all follow-up ligands, occupancy refinement was carried out. Refined models and the corresponding electron-density maps were submitted to the PDB under group deposition ID G_1002201.

endothiapepsin (EP) [5] = biological target: T1, endothiapepsin (EP); assay: Isothermal titration calorimetry (direct or SAP114-displacement titration) against EP; type: binding; details: for LE (ligand efficiency): from ITC Kd; for Kd: read-out: Kd determined by ITC; for fold affinity increase compared with the starting fragment: ITC Kd of follow-up versus Kd of its starting fragment
Method: as §1
The obtained thermogram peaks of all titrations (Supplementary Fig. S4) were integrated with Nitpic 1.1.8 (Keller et al., 2012[▸]). Subsequently, fitting of a single-site binding-model isotherm was performed using SEDPHAT 10.58d (Houtman et al., 2007[▸]). For the errors of the fit, see Supplementary Table S3. […] During the fit, ΔH was corrected for the heat of dilution, which was individually fitted for each experiment. The stoichiometry was arbitrarily fixed at the anticipated stoichiometry of N = 1 as appropriate for the present low c-value titrations (Rühmann et al., 2015[▸]).
Table S2. Details of ITC measurements.
Follow-Up Titration Concentration Ligand Concentration Final Stoichiometry
Compound Type in Cell Concentration in Syringe (Ligand:Protein)
[a] 0.1% (v/v) Tween 20 in s yringe and cell.
Table S3. Fitting statistics for ITC titration curves
Compound Global reduced chi-square[a] local rmsd[a] (B:A) n[c] Kd [µM] (SD)[d]
Isotherm fitting statistics of ITC data, anal yzed vi a SEDPHAT 10.58d (Houtman et al., 2007).
[a] Goodness of fit p arameters (glob al reduced chi-squ are and wei ghted local rmsd)
[b] Stochiometry o f the ligand protein A and t he ligand B at the infl ection point of the
[c] Number of used data points corresponding to injections of the ITC ex periment

## NC1=NCc2ccccc21 [F005]
Endothiapepsin (EP) [1]
  LE (ligand efficiency, binding energy per non-H atom): 0.38 kcal mol^−1 per atom
  Kd: 1700 µM

## O=C(CN1CCCCC1)Nc1ccc2c(c1)OCO2 [F041]
Endothiapepsin (EP) [1]
  LE (ligand efficiency, binding energy per non-H atom): 0.22 kcal mol^−1 per atom
  Kd: 900 µM

## Cc1cc(CN)n(C)n1 [F058]
Endothiapepsin (EP) [1]
  LE (ligand efficiency, binding energy per non-H atom): 0.31 kcal mol^−1 per atom
  Kd: 8800 µM

## NCc1ccc(-c2ccco2)nc1 [F066]
Endothiapepsin (EP) [1]
  LE (ligand efficiency, binding energy per non-H atom): 0.35 kcal mol^−1 per atom
  Kd: 400 µM

## N=C(N)SCc1ccc(Cl)cc1 [F290]
Endothiapepsin (EP) [1]
  LE (ligand efficiency, binding energy per non-H atom): 0.45 kcal mol^−1 per atom
  Kd: 100 µM

## NC1=N/C(=N\Nc2ccccc2)c2ccccc21 [FU5-1]
[2]
  solubility: poor solubility
[3]
  stability of the compound: decomposition

## N=C1N=C(N)c2ccccc21 [FU5-2]
Endothiapepsin (EP) [4]
  binding observed in crystal structure after soaking: retained the binding pose of F005
Endothiapepsin (EP) [5]
  LE (ligand efficiency): 0.37 kcal mol^−1 per atom
  Kd: 970 µM

## NC1=NC(=O)c2ccccc21 [FU5-3]
Endothiapepsin (EP) [4]
  binding observed in crystal structure after soaking: retained the binding pose of F005
Endothiapepsin (EP) [5]
  LE (ligand efficiency): 0.39 kcal mol^−1 per atom
  Kd: 740 µM

## N=C(N)N/N=C1\N=C(N)c2ccccc21 [FU5-4]
Endothiapepsin (EP) [5]
  LE (ligand efficiency): 0.31 kcal mol^−1 per atom
  Kd: 400 µM

## Cc1noc(C)c1CN(C)Cc1cc2n(n1)CCN(c1cc(N)ncn1)C2 [FU58-1]
Endothiapepsin (EP) [4]
  binding observed in crystal structure after soaking: observed in crystal structures
Endothiapepsin (EP) [5]
  fold affinity increase compared with the starting fragment: about 20 fold
  LE (ligand efficiency): 0.17 kcal mol^−1 per atom
  Kd: 450 µM

## CN(C)CCNC(=O)c1cc2n(n1)CCN(c1ccnc(N)n1)C2 [FU58-2]
Endothiapepsin (EP) [4]
  binding observed in crystal structure after soaking: observed in crystal structures

## CSc1ccc(CN(CCO)Cc2cc(C)nn2C)cc1 [FU58-3]
Endothiapepsin (EP) [4]
  binding observed in crystal structure after soaking: observed in crystal structures
Endothiapepsin (EP) [5]
  LE (ligand efficiency): 0.19 kcal mol^−1 per atom
  Kd: 1040 µM

## CSc1ccc(CNCCO)cc1 [FU58-3b, 2-{[4-(methylthio)benzyl]amino}ethan-1-ol]
Endothiapepsin (EP) [4]
  binding observed in crystal structure after soaking: identified in the electron density

## Oc1nc(-c2ccco2)ccc1CN(Cc1ccccn1)C1CC1 [FU66-1]
Endothiapepsin (EP) [4]
  binding observed in crystal structure after soaking: observed in the crystal structure
Endothiapepsin (EP) [5]
  LE (ligand efficiency): 0.21 kcal mol^−1 per atom
  Kd: 160 µM

## N=C(N)SCc1ccc(CSC(=N)N)cc1 [FU290-1]
Endothiapepsin (EP) [5]
  fold affinity increase compared with the starting fragment: 14 fold
  LE (ligand efficiency): 0.44 kcal mol^−1 per atom
  Kd: 7.2 µM

## CC(SC(=N)N)c1ccc(Cl)cc1 (stereo not shown) [FU290-2]
Endothiapepsin (EP) [5]
  LE (ligand efficiency): 0.40 kcal mol^−1 per atom
  Kd: 160 µM
